In patent US20020110590A1, “Pharmaceutical formulation containing DEMO for the treatment of cancer” (Ilex Oncology, Inc., priority 1996, published 2002):

How the values were obtained:
Solubility of DFMO = format: physicochemical
[1] = healthy men; cited from earlier work
[2] = any route of drug administration; cited from earlier work
polyamine pools = settings: cited from earlier work
[3] = tested on: advanced solid tumors or lymphomas; settings: patients with advanced solid tumors or lymphomas; cited from earlier work
[4] = oral administration; cited from earlier work
[5] = target: T1, ornithine decarboxylase (ODC) (Homo sapiens, UniProt P11926); settings: reported by some (Danzin, 1987); cited from earlier work
T1 sequence (P11926 1-461): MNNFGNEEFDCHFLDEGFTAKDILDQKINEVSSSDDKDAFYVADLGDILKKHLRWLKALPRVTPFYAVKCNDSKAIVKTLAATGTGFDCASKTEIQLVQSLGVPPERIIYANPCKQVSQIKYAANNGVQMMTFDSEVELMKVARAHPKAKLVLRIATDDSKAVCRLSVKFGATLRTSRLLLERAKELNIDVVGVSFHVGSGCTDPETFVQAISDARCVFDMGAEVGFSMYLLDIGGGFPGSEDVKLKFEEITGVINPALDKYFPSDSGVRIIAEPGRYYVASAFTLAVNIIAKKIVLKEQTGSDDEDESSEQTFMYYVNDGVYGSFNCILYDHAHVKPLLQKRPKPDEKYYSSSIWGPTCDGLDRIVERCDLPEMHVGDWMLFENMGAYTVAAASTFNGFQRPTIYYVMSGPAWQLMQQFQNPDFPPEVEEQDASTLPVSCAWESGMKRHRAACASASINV

Row | Compound | water solubility (Solubility of DFMO) | solubility of DFMO at a neutral pH (Solubility of DFMO; neutral pH versus acid) | elimination half-life t½ [1] | share of drug elimination accounted for by renal clearance [1] [%] | therapeutic responses [2] | minimum effective dose (MED) in significantly reducing polyamine pools in vivo (polyamine pools) | therapeutic responses [3] | maximum tolerated dose [4] | enantiomer responsible for ODC inhibition [5]
1 | NCCC[C@](N)(C(=O)O)C(F)F (racemic) [DFMO, alpha-difluoromethylornithine] | very water-soluble | relatively lower solubility | about 3.5 hours | 83 | No therapeutic responses | about 0.43 g/day | No therapeutic responses | about 12 g/m^2/day | –
2 | NCCC[C@](N)(C(=O)O)C(F)F [(−)-DFMO, alpha-difluoromethylornithine] | – | – | – | – | – | – | – | – | enantiomer primarily responsible for ODC inhibition
